Source: US20240360177A1, “PEPTIDES WITH ANTIMICROBIAL ACTIVITIES” (priority 2021, published 2024)
In brackets after ≈: the same amount, converted by molar mass. Like-named read-outs stand apart in the source and are kept apart here. Non-standard residues stand in square brackets, D forms with d. Residues, ends and D or L forms follow the SMILES beside them. Tic = O=C(O)[C@@H]1Cc2ccccc2CN1; βAla = NCCC(=O)O

Experiments:
Fusarium spp. = conditions: 48 h
C. parapsilosis = conditions: 24 h
C. dubliniensis = conditions: 24 h
C. gattii = conditions: 72 h
[1] = Acute toxicity in CD-1 mice; conditions: both sexes, mouse, in vivo
Experimental: Acute toxicity and subacute toxicity of ACPs were tested in CD-1 mice. In the acute toxicity study, groups of CD-1 male or female mice were administered single intravenous or intraperitoneal escalating doses (n=2-3 per dose) of the peptides dissolved in normal saline for injection or in phosphate buffered saline. The intravenous dose was administered via tail vein with a slow push over 15-20 seconds. Doses were escalated based on tolerability.

C. neoformans = conditions: 72 h
in vitro = conditions: human, EC50 cytotoxicity in HepG2, intracellular ATP assay
Scedosporium spp. = conditions: 72 h
C. glabrata = conditions: 24 h
C. albicans = conditions: 24 h
C. auris = conditions: 24 h
C. krusei = conditions: 24 h
C. tropicalis = conditions: 24 h

| SMILES | MIC Range Fusarium spp. (Fusarium spp.) [µg/mL] | MIC C. parapsilosis (C. parapsilosis) [µg/mL] | MIC C. dubliniensis (C. dubliniensis) [µg/mL] | MIC C. gattii (C. gattii) [µg/mL] | MTD ([1]; single IP dose, read-out: Tolerated single intraperitoneal dose) [mg/kg] | MTD ([1]; single IV dose via tail vein, read-out: Tolerated single intravenous dose) [mg/kg] | MIC C. neoformans (C. neoformans) [µg/mL] | EC50 (in vitro) [µg/mL] | MIC Range Scedosporium spp. (Scedosporium spp.) [µg/mL] | MIC C. glabrata (C. glabrata) [µg/mL] | MIC C. albicans (C. albicans) [µg/mL] | MIC50 Candida species (Candida spp.) [µg/mL] | MIC90 Candida species (Candida spp.) [µg/mL] | MIC C. auris (C. auris) [µg/mL] | MIC C. krusei (C. krusei) [µg/mL] | MIC C. tropicalis (C. tropicalis) [µg/mL] | Activity at 24 h MIC50 against Candida spp. (Candida spp.) [µg/mL] | Activity at 24 h MIC90 against Candida spp. (Candida spp.) [µg/mL] | Activity at 48 h MIC50 against Candida spp. (Candida spp.) [µg/mL] | Activity at 48 h MIC90 against Candida spp. (Candida spp.) [µg/mL] |
| --- | --- | --- | --- | --- | --- | --- | --- | --- | --- | --- | --- | --- | --- | --- | --- | --- | --- | --- | --- | --- |
| N=C(N)NCCC[C@@H](N)C(=O)N[C@H](CCCNC(=N)N)C(=O)N[C@H](CCCNC(=N)N)C(=O)NCCC(=O)N[C@H](CCCNC(=N)N)C(=O)N[C@H](CCCNC(=N)N)C(=O)N[C@H](CCCNC(=N)N)C(=O)NCCC(=O)N[C@H](CCCNC(=N)N)C(=O)N[C@H](CCCNC(=N)N)C(=O)N[C@H](CCCNC(=N)N)C(=O)N[C@H](CCCNC(=N)N)C(=O)NCCC(=O)N[C@H](CCCNC(=N)N)C(=O)N[C@H](CCCNC(=N)N)C(=O)N[C@H](CCCNC(=N)N)C(=O)N[C@H](CCCNC(=N)N)C(N)=O [SEQ ID NO: 14, rrr-(Apr)-rrr-(Apr)-rrrr-(Apr)-rrrr-NH2] (H-[dR][dR][dR][βAla][dR][dR][dR][βAla][dR][dR][dR][dR][βAla][dR][dR][dR][dR]-NH2) | 0.12 to 0.25 | 0.12 (≈ 0.0497 µM) | 0.5 (≈ 0.207 µM) | 0.25 (≈ 0.103 µM) | 10 to 15 | 5 to 7.5 | 0.5 (≈ 0.207 µM) | > 300 | 0.25 (≈ 0.103 µM) | 0.5 (≈ 0.207 µM) | 1 (≈ 0.414 µM) | 0.5 (≈ 0.207 µM) | 2 (≈ 0.828 µM) | 0.5 (≈ 0.207 µM) | 0.5 (≈ 0.207 µM) | 0.25 (≈ 0.103 µM) | – | – | – | – |
| N=C(N)NCCC[C@@H](N)C(=O)N[C@@H](CCCNC(=N)N)C(=O)N[C@H](CCCNC(=N)N)C(=O)N[C@@H](CCCNC(=N)N)C(=O)N[C@H](CCCNC(=N)N)C(=O)N[C@@H](CCCNC(=N)N)C(=O)N[C@H](CCCNC(=N)N)C(=O)N1CCC[C@H]1C(=O)N[C@H](CCCNC(=N)N)C(=O)N[C@@H](CCCNC(=N)N)C(=O)N[C@H](CCCNC(=N)N)C(=O)N[C@@H](CCCNC(=N)N)C(=O)N[C@H](CCCNC(=N)N)C(=O)N[C@@H](CCCNC(=N)N)C(=O)N[C@H](CCCNC(=N)N)C(N)=O [SEQ ID NO: 62, rRrRrRr-P-rRrRrRr-NH2] (H-[dR]R[dR]R[dR]R[dR]P[dR]R[dR]R[dR]R[dR]-NH2) | – | 0.25 (≈ 0.109 µM) | 0.25 (≈ 0.109 µM) | – | – | – | – | > 300 | – | 0.5 (≈ 0.217 µM) | 0.25 (≈ 0.109 µM) | – | – | 2 (≈ 0.869 µM) | 0.5 (≈ 0.217 µM) | 0.25 (≈ 0.109 µM) | 0.5 | 4 | 0.5 | 32 |
| N=C(N)NCCC[C@H](NC(=O)[C@@H](CCCNC(=N)N)NC(=O)[C@H](CCCNC(=N)N)NC(=O)[C@@H](CCCNC(=N)N)NC(=O)[C@@H]1CCCN1C(=O)[C@H](CCCNC(=N)N)NC(=O)[C@@H](CCCNC(=N)N)NC(=O)[C@H](CCCNC(=N)N)NC(=O)[C@@H](CCCNC(=N)N)NC(=O)[C@@H]1CCCN1C(=O)[C@@H](CCCNC(=N)N)NC(=O)[C@H](CCCNC(=N)N)NC(=O)[C@@H](CCCNC(=N)N)NC(=O)[C@@H]1CCCN1C(=O)[C@@H](CCCNC(=N)N)NC(=O)[C@H](CCCNC(=N)N)NC(=O)[C@@H](CCCNC(=N)N)NC(=O)[C@@H](N)CCCNC(=N)N)C(N)=O [SEQ ID NO: 63, RrRr-P-rRr-P-rRrR-P-rRrR-NH2] (H-R[dR]R[dR]P[dR]R[dR]P[dR]R[dR]RP[dR]R[dR]R-NH2) | – | 0.5 (≈ 0.189 µM) | 0.5 (≈ 0.189 µM) | – | – | – | – | > 300 | – | 0.5 (≈ 0.189 µM) | 0.5 (≈ 0.189 µM) | – | – | 0.5 (≈ 0.189 µM) | 0.5 (≈ 0.189 µM) | 0.5 (≈ 0.189 µM) | 0.5 | 1 | 1 | 2 |
| N=C(N)NCCC[C@@H](N)C(=O)N[C@@H](CCCNC(=N)N)C(=O)N[C@H](CCCNC(=N)N)C(=O)N[C@@H](CCCNC(=N)N)C(=O)N1CCC[C@H]1C(=O)N[C@H](CCCNC(=N)N)C(=O)N[C@@H](CCCNC(=N)N)C(=O)N[C@H](CCCNC(=N)N)C(=O)N[C@@H](CCCNC(=N)N)C(=O)N1CCC[C@H]1C(=O)N[C@H](CCCNC(=N)N)C(=O)N[C@@H](CCCNC(=N)N)C(=O)N[C@H](CCCNC(=N)N)C(=O)N1CCC[C@H]1C(=O)N[C@H](CCCNC(=N)N)C(=O)N[C@@H](CCCNC(=N)N)C(=O)N[C@H](CCCNC(=N)N)C(N)=O [SEQ ID NO: 60, rRrR-P-rRrR-P-rRr-P-rRr-NH2] (H-[dR]R[dR]RP[dR]R[dR]RP[dR]R[dR]P[dR]R[dR]-NH2) | – | 0.25 (≈ 0.1 µM) | 0.25 (≈ 0.1 µM) | – | – | – | – | > 300 | – | 0.25 (≈ 0.1 µM) | 0.25 (≈ 0.1 µM) | – | – | 0.5 (≈ 0.2 µM) | 0.5 (≈ 0.2 µM) | 0.25 (≈ 0.1 µM) | – | – | – | – |
| N=C(N)NCCC[C@H](NC(=O)[C@@H](CCCNC(=N)N)NC(=O)[C@H](CCCNC(=N)N)NC(=O)[C@@H](CCCNC(=N)N)NC(=O)[C@@H]1CCCN1C(=O)[C@H](CCCNC(=N)N)NC(=O)[C@@H](CCCNC(=N)N)NC(=O)[C@H](CCCNC(=N)N)NC(=O)[C@@H](CCCNC(=N)N)NC(=O)[C@@H]1CCCN1C(=O)[C@H](CCCNC(=N)N)NC(=O)[C@@H](CCCNC(=N)N)NC(=O)[C@H](CCCNC(=N)N)NC(=O)[C@@H](CCCNC(=N)N)NC(=O)[C@@H]1CCCN1C(=O)[C@@H](CCCNC(=N)N)NC(=O)[C@H](CCCNC(=N)N)NC(=O)[C@@H](CCCNC(=N)N)NC(=O)[C@@H](N)CCCNC(=N)N)C(N)=O [SEQ ID NO: 64, RrRr-P-rRrR-P-rRrR-P-rRrR-NH2] (H-R[dR]R[dR]P[dR]R[dR]RP[dR]R[dR]RP[dR]R[dR]R-NH2) | – | 0.5 (≈ 0.178 µM) | 0.5 (≈ 0.178 µM) | – | – | – | – | > 300 | – | 0.5 (≈ 0.178 µM) | 0.5 (≈ 0.178 µM) | – | – | 0.5 (≈ 0.178 µM) | 0.5 (≈ 0.178 µM) | 0.5 (≈ 0.178 µM) | 0.5 | 1 | 0.5 | 2 |
| N=C(N)NCCC[C@@H](N)C(=O)N[C@@H](CCCNC(=N)N)C(=O)N[C@H](CCCNC(=N)N)C(=O)N1Cc2ccccc2C[C@H]1C(=O)N[C@H](CCCNC(=N)N)C(=O)N[C@@H](CCCNC(=N)N)C(=O)N[C@H](CCCNC(=N)N)C(=O)N1Cc2ccccc2C[C@H]1C(=O)N[C@H](CCCNC(=N)N)C(=O)N[C@@H](CCCNC(=N)N)C(=O)N[C@H](CCCNC(=N)N)C(=O)N[C@@H](CCCNC(=N)N)C(=O)N1Cc2ccccc2C[C@H]1C(=O)N[C@H](CCCNC(=N)N)C(=O)N[C@@H](CCCNC(=N)N)C(=O)N[C@H](CCCNC(=N)N)C(=O)N[C@@H](CCCNC(=N)N)C(N)=O [SEQ ID NO: 76, rRr-(Tic)-rRr-(Tic)-rRrR-(Tic)-rRrR-NH2] (H-[dR]R[dR][Tic][dR]R[dR][Tic][dR]R[dR]R[Tic][dR]R[dR]R-NH2) | – | 0.5 (≈ 0.186 µM) | 0.5 (≈ 0.186 µM) | – | – | – | – | 139 (≈ 51.7 µM) | – | 0.5 (≈ 0.186 µM) | 0.5 (≈ 0.186 µM) | – | – | 0.5 (≈ 0.186 µM) | 1 (≈ 0.373 µM) | 0.5 (≈ 0.186 µM) | – | – | – | – |
| N=C(N)NCCC[C@H](NC(=O)[C@@H](CCCNC(=N)N)NC(=O)[C@@H](N)CCCNC(=N)N)C(=O)N[C@H](CCCNC(=N)N)C(=O)N1CCC[C@H]1C(=O)N[C@H](CCCNC(=N)N)C(=O)N[C@@H](CCCNC(=N)N)C(=O)N[C@H](CCCNC(=N)N)C(=O)N1CCC[C@H]1C(=O)N[C@@H](CCCNC(=N)N)C(=O)N[C@H](CCCNC(=N)N)C(=O)N[C@@H](CCCNC(=N)N)C(=O)N1CCC[C@H]1C(=O)N[C@H](CCCNC(=N)N)C(=O)N[C@@H](CCCNC(=N)N)C(=O)N[C@H](CCCNC(=N)N)C(N)=O [SEQ ID NO: 65, RrRr-P-rRr-P-RrR-P-rRr-NH2] (H-R[dR]R[dR]P[dR]R[dR]PR[dR]RP[dR]R[dR]-NH2) | – | 0.25 (≈ 0.107 µM) | 0.5 (≈ 0.214 µM) | – | – | – | – | > 300 | – | 0.5 (≈ 0.214 µM) | 0.25 (≈ 0.107 µM) | – | – | 0.5 (≈ 0.214 µM) | 0.5 (≈ 0.214 µM) | 0.5 (≈ 0.214 µM) | 0.5 | 2 | 0.5 | 32 |
